{
  "source": "patent US8653069B2",
  "about": "“Aralkyl substituted piperidine or piperazine derivatives and their use for treating schizophrenia” (Jiangsu Hengyi Pharmaceutical Co., Ltd., priority 2008, dated 2014)",
  "note": "Where a name gives a salt, the structure may show the parent alone.",
  "data": [
    {"test_system": "not listed separately", "assay": "in vivo", "settings": "mouse, po", "units": {"LD50": "mg/kg"}, "values": [
      {"compound": "O=C1Cc2cc(CCN3CCN(c4nsc5ccccc45)CC3)c(Cl)cc2N1", "note": "[ziprasidone]", "LD50": 1600}
    ]},
    {"target": "T1, dopamine D2 receptor (Homo sapiens, UniProt P14416)", "T1 construct": "expressed in transfected cells; host or cells: CHO-hD2L cells (membrane preparation)", "T1 sequence (P14416 whole entry)": "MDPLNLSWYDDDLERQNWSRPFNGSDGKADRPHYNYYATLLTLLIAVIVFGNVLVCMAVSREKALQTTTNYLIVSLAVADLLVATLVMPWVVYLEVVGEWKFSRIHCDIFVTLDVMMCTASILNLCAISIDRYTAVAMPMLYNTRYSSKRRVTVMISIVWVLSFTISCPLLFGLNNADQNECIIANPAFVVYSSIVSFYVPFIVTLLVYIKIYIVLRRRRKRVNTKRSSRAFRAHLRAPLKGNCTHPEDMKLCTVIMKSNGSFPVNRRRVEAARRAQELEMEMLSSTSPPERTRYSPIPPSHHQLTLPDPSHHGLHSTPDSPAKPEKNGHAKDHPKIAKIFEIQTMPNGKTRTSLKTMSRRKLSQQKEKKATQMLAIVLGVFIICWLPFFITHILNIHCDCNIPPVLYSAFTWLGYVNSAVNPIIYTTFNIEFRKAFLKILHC", "assay": "Dopamine D2 receptor-binding assay ([3H]Spiperone displacement)", "settings": "inhibition of binding of 0.4 nM [3H]Spiperone, CHO-hD2L film product, room temperature 120 minutes; read-out: IC50 (affinity to D2 receptor)", "protocol": "A Dopamine D2 Receptor-Binding Assay\nAn isotope ligand for D2 receptor: [^3H]Spiperone (77.0 Ci/mmol); (+)Butaclamol; GF/C glass fiber media; a liposoluble scintillation solution; and the D2 receptor protein expressed by sf9 cells.\nA binding assay of a film product of CHO-hD2L cells and [^3H]Spiperone is conducted in a 250 μl of 50 mM of Tris-HCl […] buffer (Ph=7.4) solution comprising 100 mM of NaCl, 1 mM of MgC12 and 1% of DMSO. A sample in duplicate containing compounds to be tested, 0.4 nM of [^3H]Spiperone and 12 ug of protein is maintained at room temperature for 120 minutes. The bound radioactive ligand is separated by flash filtration under reduced pressure using Whatman GF/B glass fiber filter pre-treated with 0.3% polyethylenelmine, and radioactivity maintained on the filter is measured using liquid scintillation spectrophotometry. The title compounds in the following examples are tested using the above test, which comprises first of all testing competitive inhibition rate of each compound at a concentration of 10 umol/L to binding of [^3H]Spiperone to D2 receptor through a rough screening; and compounds having inhibition rate higher than 95% are subjected to receptor binding assay under a series of concentrations to determine a half-inhibitory concentration (IC50, the concentration of a compound needed for inhibiting binding of 50% [^3H]Spiperone to D2 receptor). Two tubes under each concentration are measured, and each compound is subjected to two independent tests.", "units": {"IC50": "nM"}, "values": [
      {"compound": "6-[4-(4-(3-(6-fluoro-benzisoxazolyl))-1-piperazinyl)-n-butoxy]-(1H)-indole [IV-3]", "IC50": 12.3},
      {"compound": "O=C1CCc2ccc(OCCCCN3CCN(c4noc5cc(Cl)ccc45)CC3)cc2N1", "note": "[I-1, 7-[4-(4-(6-chloro-benzisoxazolyl)-1-piperazinyl)-n-butoxy]-3,4-dihydro-2(1H)-quinolinone hydrochloride]", "IC50": 25.7},
      {"compound": "O=C1CCc2ccc(OCCCCN3CCN(c4noc5ccc(Cl)cc45)CC3)cc2N1", "note": "[I-2, 7-[4-(4-(5-chloro-benzisoxazolyl)-1-piperazinyl)-n-butoxy]-3,4-dihydro-2(1H)-quinolinone hydrochloride]", "IC50": 56.8},
      {"compound": "O=C1CCc2ccc(OCCCCN3CCN(c4noc5ccccc45)CC3)cc2N1", "note": "[I-3, 7-[4-(4-(benzisoxazolyl)-1-piperazinyl)-n-butoxy]-3,4-dihydro-2(1H)-quinolinone hydrochloride]", "IC50": 99.3},
      {"compound": "O=C1CCc2ccc(OCCCCN3CCN(c4noc5cc(F)ccc45)CC3)cc2N1", "note": "[I-4, 7-[4-(4-(6-fluoro-benzisoxazolyl)-1-piperazinyl)-n-butoxy]-3,4-dihydro-2(1H)-quinolinone hydrochloride]", "IC50": 10.2},
      {"compound": "O=C1CCc2ccc(OCCCCN3CCN(c4noc5cc(C(F)(F)F)ccc45)CC3)cc2N1", "note": "[I-5, 7-[4-(4-(6-trifluoromethyl-benzisoxazolyl)-1-piperazinyl)-n-butoxy]-3,4-dihydro-2(1H)-quinolinone hydrochloride]", "IC50": 53.6},
      {"compound": "Cc1ccc2onc(N3CCN(CCCCOc4ccc5c(c4)NC(=O)CC5)CC3)c2c1", "note": "[I-7, 7-[4-(4-(5-methyl-benzisoxazoly)-1-piperazinyl)-n-butoxy]-3,4-dihydro-2(1H)-quinolinone hydrochloride]", "IC50": 290},
      {"compound": "O=C1CCc2ccc(OCCCCN3CCN(c4noc5cc(O)ccc45)CC3)cc2N1", "note": "[I-8, 7-[4-(4-(6-hydroxy-benzisoxazolyl)-1-piperazinyl)-n-butoxy]-3,4-dihydro-2(1H)-quinolinone hydrochloride]", "IC50": 157},
      {"compound": "COc1ccc2onc(N3CCN(CCCCOc4ccc5c(c4)NC(=O)CC5)CC3)c2c1", "note": "[I-9, 7-[4-(4-(5-methoxy-benzisoxazolyl)-1-piperazinyl)-n-butoxy]-3,4-dihydro-2(1H)-quinolinone hydrochloride]", "IC50": 25},
      {"compound": "O=C1CCc2ccc(OCCCCN3CCN(c4noc5ccc(Br)cc45)CC3)cc2N1", "note": "[I-11, 7-[4-(4-(5-bromo-benzisoxazolyl)-1-piperazinyl)-n-butoxy]-3,4-dihydro-2(1H)-quinolinone hydrochloride]", "IC50": 77.8},
      {"compound": "COc1ccc2c(N3CCN(CCCCOc4ccc5c(c4)NC(=O)CC5)CC3)noc2c1Br", "note": "[I-12, 7-[4-(4-(7-bromo-6-methoxy-benzisoxazolyl)-1-piperazinyl)-n-butoxy]-3,4-dihydro-2(1H)-quinolinone hydrochloride]", "IC50": 10.2},
      {"compound": "O=C1CCc2ccc(OCCCN3CCC(c4noc5cc(F)ccc45)CC3)cc2N1", "note": "[II-2, 7-[3-(4-(6-fluoro-benzisoxazolyl)-1-piperidinyl)-n-propoxy]-3,4-dihydro-2(1H)-quinolinone hydrochloride]", "IC50": 16.2},
      {"compound": "O=C1CCc2ccc(OCCCCCN3CCC(c4noc5cc(F)ccc45)CC3)cc2N1", "note": "[II-3, 7-[5-(4-(6-fluoro-benzisoxazolyl)-1-piperidinyl)-pentyloxy]-3,4-dihydro-2(1H)-quinolinone hydrochloride]", "IC50": 202},
      {"compound": "O=C1CCc2ccc(OCCCCN3CCC(c4noc5ccccc45)CC3)cc2N1", "note": "[II-4, 7-[(4-benzisoxazolyl-1-piperidinyl)-n-butoxy]-3,4-dihydro-2(1H)-quinolinone hydrochloride]", "IC50": 23.6},
      {"compound": "O=C1CCc2ccc(OCCCCN3CCC(c4noc5cc(Cl)ccc45)CC3)cc2N1", "note": "[II-5, 7-[4-(4-(6-chloro-benzisoxazolyl)-1-piperidinyl)-n-butoxy]-3,4-dihydro-2(1H)-quinolinone hydrochloride]", "IC50": 15.8},
      {"compound": "COc1ccc2onc(C3CCN(CCCCOc4ccc5c(c4)NC(=O)CC5)CC3)c2c1", "note": "[II-6, 7-[4-(4-(5-methoxy-benzisoxazolyl)-1-piperidinyl)-n-butoxy]-3,4-dihydro-2(1H)-quinolinone hydrochloride]", "IC50": 277},
      {"compound": "O=C1CCc2ccc(OCCCCN3CCC(c4noc5ccc(F)cc45)CC3)cc2N1", "note": "[II-7, 7-[4-(4-(5-fluoro-benzisoxazolyl)-1-piperidinyl)-n-butoxy]-3,4-dihydro-2(1H)-quinolinone hydrochloride]", "IC50": 12.6},
      {"compound": "COc1cc2onc(C3CCN(CCCCOc4ccc5c(c4)NC(=O)CC5)CC3)c2cc1OC", "note": "[II-8, 7-[4-(4-(5,6-dimethoxy-benzisoxazolyl)-1-piperidinyl)-n-butoxy]-3,4-dihydro-2(1H)-quinolinone hydrochloride]", "IC50": 23.8},
      {"compound": "O=C1CCc2ccc(OCCCCN3CCC(c4noc5ccc(O)cc45)CC3)cc2N1", "note": "[II-9, 7-[4-(5-hydroxy-benzisoxazolyl)-1-piperidinyl)-n-butoxy]-3,4-dihydro-2(1H)-quinolinone hydrochloride]", "IC50": 78.8},
      {"compound": "O=C1CCc2ccc(OCCCCN3CCC(c4noc5cc(O)c(O)cc45)CC3)cc2N1", "note": "[II-10, 7-[4-(5,6-dihydroxy-benzisoxazolyl)-1-piperidinyl)-n-butoxy]-3,4-dihydro-2(1H)-quinolinone hydrochloride]", "IC50": 45.6},
      {"compound": "O=C1CCc2ccc(OCCCCN3CCN(c4nsc5ccccc45)CC3)cc2N1", "note": "[III-1, 7-[4-(1,2-benzisothiazol-3-yl)-1-piperazinyl)-n-butoxy]-3,4-dihydro-2(1H)-quinolinone hydrochloride]", "IC50": 5.23},
      {"compound": "O=C1CCc2ccc(OCCCN3CCN(c4nsc5ccccc45)CC3)cc2N1", "note": "[III-2, 7-[3-(1,2-benzisothiazolyl)-1-piperazinyl]-n-propoxy]-3,4-dihydro-2(1H)-quinolinone hydrochloride]", "IC50": 76.8},
      {"compound": "COc1ccc2c(N3CCN(CCCCOc4ccc5c(c4)NC(=O)CC5)CC3)nsc2c1", "note": "[III-4, 7-[4-(6-methoxy-1,2-benzisothiazolyl)-1-piperazinyl]-n-butoxy]-3,4-dihydro-2(1H)-quinolinone of hydrochloride]", "IC50": 17.9},
      {"compound": "COc1cccc2c(N3CCN(CCCCOc4ccc5c(c4)NC(=O)CC5)CC3)nsc12", "note": "[III-5, 7-[4-(7-methoxy-1,2-benzisothiazolyl)-1-piperazinyl]-n-butoxy-3,4-dihydro-2(1H)-quinolinone hydrochloride]", "IC50": 15.8},
      {"compound": "COc1ccc2snc(N3CCN(CCCCOc4ccc5c(c4)NC(=O)CC5)CC3)c2c1", "note": "[III-6, 7-[4-(5-methoxy-1,2-benzisothiazolyl)-1-piperazinyl]-n-butoxy]-3,4-dihydro-2(1H)-quinolinone hydrochloride]", "IC50": 15},
      {"compound": "COc1cccc2snc(N3CCN(CCCCOc4ccc5c(c4)NC(=O)CC5)CC3)c12", "note": "[III-7, 7-[4-(4-methoxy-1,2-benzisothiazolyl)-1-piperazinyl]-n-butoxy]-3,4-dihydro-2(1H)-quinolinone hydrochloride]", "IC50": 168},
      {"compound": "O=C1Cc2ccc(OCCCCN3CCC(c4noc5cc(F)ccc45)CC3)cc2N1", "note": "[IV-1, 6-[4-(4-(3-(6-fluoro-benzisoxazolyl))-1-piperidinyl)-n-butoxy)-indoline-2-one]", "IC50": 38.9}
    ]},
    {"target": "T2, rD2R (Rattus norvegicus, UniProt P61169)", "T2 construct": "expressed in transfected cells; host or cells: CHO cells stably expressing rD2R (CHO-rD2)", "T2 sequence (P61169 whole entry)": "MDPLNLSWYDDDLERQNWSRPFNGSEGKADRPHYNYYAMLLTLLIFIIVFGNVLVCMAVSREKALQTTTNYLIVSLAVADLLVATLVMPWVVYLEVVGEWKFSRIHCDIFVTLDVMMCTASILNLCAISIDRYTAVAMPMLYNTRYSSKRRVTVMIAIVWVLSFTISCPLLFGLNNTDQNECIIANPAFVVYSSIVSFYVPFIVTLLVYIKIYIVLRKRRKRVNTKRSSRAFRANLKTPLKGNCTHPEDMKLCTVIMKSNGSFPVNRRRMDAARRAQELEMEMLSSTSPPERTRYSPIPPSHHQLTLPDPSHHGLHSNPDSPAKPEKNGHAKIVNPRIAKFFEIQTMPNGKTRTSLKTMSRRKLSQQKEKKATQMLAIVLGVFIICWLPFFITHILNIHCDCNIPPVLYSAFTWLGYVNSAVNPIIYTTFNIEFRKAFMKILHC", "assay": "Antagonistic test of D2 receptor (cAMP radioimmunoassay, Forskolin + Dopamine, CHO-rD2 cells)", "type": "cell-based", "settings": "10 μM Forskolin + 10 μM Dopamine, cAMP generated", "protocol": "An Antagonistic Test of D2 Receptor\nCHO-rD2 cell is seeded on a 96-well plate at a concentration of 30,000 cells/well, and cultured overnight; each medicine is dissolved in a serum-free F12 culture media containing 100 μM of IBMX, and is added to the above cell for preculturing 30 minutes at 37° C.; thereafter a serum-free F12 culture media containing 10 μM of Forskolin and 10 μM of Dopamine is added and react for 8 minutes, and then 100 μl of pre-cooled 1M HClO4 is added to terminate the reaction. The reaction solution is allowed to stand on ice for 40 minutes, and thereto 20 μl of 2M K2CO3 is added to neutralize the reaction solution. The reaction solution is centrifuged at 3,000 rpm for 15 minutes at 4° C., and a KClO4 deposit is discarded. An amount of supernatant is diluted in 0.05M of acetic acid buffer, and the amount of generated cAMP is measured with radioimmunoassay method. […] See the kit's instructions for detailed steps. Two tubes under each concentration of each compound are measured, and each compound is subjected to two independent tests.\nThe ordinate of the dose-effect curve represents a reduced percentage of the amount of generated cAMP through antagonist of DA by the compound.", "units": {"IC50": "nM"}, "values": [
      {"compound": "O=C1CCc2ccc(OCCCCN3CCN(c4nsc5ccccc45)CC3)cc2N1", "note": "[III-1, 7-[4-(1,2-benzisothiazol-3-yl)-1-piperazinyl)-n-butoxy]-3,4-dihydro-2(1H)-quinolinone hydrochloride]", "IC50": 56400},
      {"compound": "O=C1Cc2ccc(OCCCCN3CCC(c4noc5cc(F)ccc45)CC3)cc2N1", "note": "[IV-1, 6-[4-(4-(3-(6-fluoro-benzisoxazolyl))-1-piperidinyl)-n-butoxy)-indoline-2-one]", "IC50": 198000}
    ]}
  ]
}
